Reference: publication PMC3272488 (European Journal of Medicinal Chemistry, 2011)
Where a name gives a salt, the structure may show the parent alone.

Assays:
sigma-2 receptors = biological target: T1, sigma-2 receptors (Rattus norvegicus, UniProt Q5U3Y7); test: sigma-2 receptor radioligand binding
T1 sequence (Q5U3Y7 1-176): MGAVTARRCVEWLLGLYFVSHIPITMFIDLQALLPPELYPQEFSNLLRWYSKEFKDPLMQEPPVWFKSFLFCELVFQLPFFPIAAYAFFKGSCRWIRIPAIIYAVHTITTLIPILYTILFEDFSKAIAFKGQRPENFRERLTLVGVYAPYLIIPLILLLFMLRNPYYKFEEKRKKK

σ-1 = details: quantity type not given; cited from earlier work
σ-2 = details: quantity type not given; cited from earlier work

| Structure (SMILES) | σ-1/σ-2 selectivity ratio (sigma-2 receptors) | σ-1 affinity (σ-1) | σ-2 affinity (σ-2) [nM] |
| --- | --- | --- | --- |
| Fc1ccc(N2CCN(CCCCn3ccc4ccccc43)CC2)cc1 [4b, 1-(4-(4-(4-Fluorophenyl)piperazin-1-yl)butyl)indole oxalate] | 5 |  |  |
| COc1cc2c(cc1OC)CN(CCCCNC(=O)c1cc(Br)cc(OC)c1OC)CC2 [5-bromo-N-(4-(6,7-dimethoxy-3,4-dihydroisoquinolin-2(1H)-yl)butyl)-2,3-dimethoxybenzamide] |  | 12,900 nM | 8.2 |
| Fc1ccc(-n2cc(CCCCN3CCC4(CC3)OCc3ccccc34)c3ccccc32)cc1 [Siramesine] |  | 17 nM |  |
